# Biological target: T1, CsnOU01 (GH family 46 chitosanase) (Microbacterium sp. OU01, UniProt A7KBW5)
# T1 construct: about 28 kDa
# T1 sequence (A7KBW5 26-266): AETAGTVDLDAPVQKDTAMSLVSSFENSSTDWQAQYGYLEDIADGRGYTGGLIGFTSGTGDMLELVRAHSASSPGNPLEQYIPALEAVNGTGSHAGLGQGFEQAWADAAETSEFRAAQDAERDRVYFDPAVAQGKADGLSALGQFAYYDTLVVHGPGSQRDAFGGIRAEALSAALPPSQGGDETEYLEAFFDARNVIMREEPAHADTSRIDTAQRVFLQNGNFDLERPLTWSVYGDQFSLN
# Assay: equilibrium adsorption to ligand-coupled Sepharose 6B, Scatchard analysis
# Assay type: binding
# Conditions: compound immobilised on Sepharose 6B via cyanuric chloride spacer (not the free sugar); Kd in mass concentration of enzyme; 20 mM Tris-HCl, pH 8.0
# Excerpt: equilibrium adsorption to ligand-coupled Sepharose 6B, Scatchard analysis on CsnOU01 (GH family 46 chitosanase)
compound,measurement,value
glucosamine,Kd,88.5 µg/mL
"N[C@H]1[C@H](O[C@H]2[C@H](O)[C@@H](N)C(O)O[C@@H]2CO)O[C@H](CO)[C@@H](O)[C@@H]1O (stereo partly drawn) [CHDS, chitodisaccharide]",Kd,16.4 µg/mL
chitotrisaccharide [CHTS],Kd,20.7 µg/mL
